Laboratory results from ChEMBL document CHEMBL4725412, “Augmenting the Activity of Macrolide Adjuvants against Acinetobacter baumannii” (2020).

How the values were obtained:
Type in all cases: functional
Acinetobacter baumannii [1] = assay: Antibacterial activity against Acinetobacter baumannii 3785 assessed as reduction in microbial growth incubated for 16 hrs by broth microdilution method
Acinetobacter baumannii [2] = assay: Potentiation of clarithromycin-induced antibacterial activity against Acinetobacter baumannii 3785 assessed as fold reduction in clarithromycin MIC at 7.5 uM incubated for 16 hrs by broth microdilution method
Acinetobacter baumannii [3] = assay: Antibacterial activity against Acinetobacter baumannii 3560 assessed as reduction in microbial growth incubated for 16 hrs by broth microdilution method
Acinetobacter baumannii [4] = assay: Potentiation of clarithromycin-induced antibacterial activity against Acinetobacter baumannii 4957 assessed as fold reduction in clarithromycin MIC at 7.5 uM incubated for 16 hrs by broth microdilution method
Acinetobacter baumannii [5] = assay: Potentiation of clarithromycin-induced antibacterial activity against Acinetobacter baumannii 5001 assessed as fold reduction in clarithromycin MIC at 7.5 uM incubated for 16 hrs by broth microdilution method
Acinetobacter baumannii [6] = assay: Potentiation of clarithromycin-induced antibacterial activity against Acinetobacter baumannii 5197 assessed as fold reduction in clarithromycin MIC at 7.5 uM incubated for 16 hrs by broth microdilution method
Acinetobacter baumannii [7] = assay: Potentiation of clarithromycin-induced antibacterial activity against Acinetobacter baumannii 4456 assessed as fold reduction in clarithromycin MIC at 7.5 uM incubated for 16 hrs by broth microdilution method
Acinetobacter baumannii [8] = assay: Potentiation of clarithromycin-induced antibacterial activity against Acinetobacter baumannii 5256 assessed as fold reduction in clarithromycin MIC at 7.5 uM incubated for 16 hrs by broth microdilution method
Acinetobacter baumannii [9] = assay: Antibacterial activity against Acinetobacter baumannii 4027 assessed as reduction in microbial growth incubated for 16 hrs by broth microdilution method
Acinetobacter baumannii [10] = assay: Potentiation of clarithromycin-induced antibacterial activity against Acinetobacter baumannii 8967 assessed as fold reduction in clarithromycin MIC at 7.5 uM incubated for 16 hrs by broth microdilution method
Acinetobacter baumannii [11] = assay: Potentiation of clarithromycin-induced antibacterial activity against Acinetobacter baumannii 4490 assessed as fold reduction in clarithromycin MIC at 7.5 uM incubated for 16 hrs by broth microdilution method
Acinetobacter baumannii [12] = assay: Antibacterial activity against Acinetobacter baumannii 4878 assessed as reduction in microbial growth incubated for 16 hrs by broth microdilution method
Acinetobacter baumannii [13] = assay: Antibacterial activity against Acinetobacter baumannii 4448 assessed as reduction in microbial growth incubated for 16 hrs by broth microdilution method
Acinetobacter baumannii [14] = assay: Potentiation of clarithromycin-induced antibacterial activity against Acinetobacter baumannii 3927 assessed as fold reduction in clarithromycin MIC at 7.5 uM incubated for 16 hrs by broth microdilution method
Acinetobacter baumannii [15] = assay: Antibacterial activity against Acinetobacter baumannii 4498 assessed as reduction in microbial growth incubated for 16 hrs by broth microdilution method
Acinetobacter baumannii [16] = assay: Antibacterial activity against Acinetobacter baumannii 3927 assessed as reduction in microbial growth incubated for 16 hrs by broth microdilution method
Acinetobacter baumannii [17] = assay: Antibacterial activity against Acinetobacter baumannii 4857 assessed as reduction in microbial growth incubated for 16 hrs by broth microdilution method
Acinetobacter baumannii [18] = assay: Antibacterial activity against Acinetobacter baumannii AB5075 assessed as reduction in microbial growth incubated for 16 hrs by broth microdilution method
Acinetobacter baumannii [19] = assay: Antibacterial activity against Acinetobacter baumannii 4957 assessed as reduction in microbial growth incubated for 16 hrs by broth microdilution method
Acinetobacter baumannii [20] = assay: Antibacterial activity against Acinetobacter baumannii 3806 assessed as reduction in microbial growth incubated for 16 hrs by broth microdilution method
Acinetobacter baumannii [21] = assay: Potentiation of clarithromycin-induced antibacterial activity against Acinetobacter baumannii 4991 assessed as fold reduction in clarithromycin MIC at 7.5 uM incubated for 16 hrs by broth microdilution method
Acinetobacter baumannii [22] = assay: Antibacterial activity against Acinetobacter baumannii 8967 assessed as reduction in microbial growth incubated for 16 hrs by broth microdilution method
Acinetobacter baumannii [23] = assay: Potentiation of clarithromycin-induced antibacterial activity against Acinetobacter baumannii 4026 assessed as fold reduction in clarithromycin MIC at 7.5 uM incubated for 16 hrs by broth microdilution method
Acinetobacter baumannii [24] = assay: Antibacterial activity against Acinetobacter baumannii 4269 assessed as reduction in microbial growth incubated for 16 hrs by broth microdilution method
Acinetobacter baumannii [25] = assay: Antibacterial activity against Acinetobacter baumannii 5256 assessed as reduction in microbial growth incubated for 16 hrs by broth microdilution method
Acinetobacter baumannii [26] = assay: Potentiation of clarithromycin-induced antibacterial activity against Acinetobacter baumannii 4878 assessed as fold reduction in clarithromycin MIC at 7.5 uM incubated for 16 hrs by broth microdilution method
Acinetobacter baumannii [27] = assay: Antibacterial activity against Acinetobacter baumannii 4456 assessed as reduction in microbial growth incubated for 16 hrs by broth microdilution method
Acinetobacter baumannii [28] = assay: Potentiation of clarithromycin-induced antibacterial activity against Acinetobacter baumannii 4498 assessed as fold reduction in clarithromycin MIC at 7.5 uM incubated for 16 hrs by broth microdilution method
Acinetobacter baumannii [29] = assay: Potentiation of clarithromycin-induced antibacterial activity against Acinetobacter baumannii 4269 assessed as fold reduction in clarithromycin MIC at 7.5 uM incubated for 16 hrs by broth microdilution method
Acinetobacter baumannii [30] = assay: Antibacterial activity against Acinetobacter baumannii 4991 assessed as reduction in microbial growth incubated for 16 hrs by broth microdilution method
Acinetobacter baumannii [31] = assay: Potentiation of clarithromycin-induced antibacterial activity against Acinetobacter baumannii 4052 assessed as fold reduction in clarithromycin MIC at 7.5 uM incubated for 16 hrs by broth microdilution method
Acinetobacter baumannii [32] = assay: Antibacterial activity against Acinetobacter baumannii 5001 assessed as reduction in microbial growth incubated for 16 hrs by broth microdilution method
Acinetobacter baumannii [33] = assay: Potentiation of clarithromycin-induced antibacterial activity against Acinetobacter baumannii 4857 assessed as fold reduction in clarithromycin MIC at 7.5 uM incubated for 16 hrs by broth microdilution method
Acinetobacter baumannii [34] = assay: Potentiation of clarithromycin-induced antibacterial activity against Acinetobacter baumannii AB5075 assessed as fold reduction in clarithromycin MIC at 5 uM incubated for 16 hrs in presence of clarithromycin by broth microdilution method
Acinetobacter baumannii [35] = assay: Antibacterial activity against Acinetobacter baumannii 4490 assessed as reduction in microbial growth incubated for 16 hrs by broth microdilution method
Acinetobacter baumannii [36] = assay: Antibacterial activity against Acinetobacter baumannii 5197 assessed as reduction in microbial growth incubated for 16 hrs by broth microdilution method
Acinetobacter baumannii [37] = assay: Potentiation of clarithromycin-induced antibacterial activity against Acinetobacter baumannii 4025 assessed as fold reduction in clarithromycin MIC at 7.5 uM incubated for 16 hrs by broth microdilution method
Acinetobacter baumannii [38] = assay: Antibacterial activity against Acinetobacter baumannii 4795 assessed as reduction in microbial growth incubated for 16 hrs by broth microdilution method
Acinetobacter baumannii [39] = assay: Potentiation of clarithromycin-induced antibacterial activity against Acinetobacter baumannii AB5075 assessed as clarithromycin MIC at 7.5 uM incubated for 16 hrs by broth microdilution method (reference value: […] ug/ml)
Acinetobacter baumannii [40] = assay: Potentiation of clarithromycin-induced antibacterial activity against Acinetobacter baumannii 3560 assessed as fold reduction in clarithromycin MIC at 7.5 uM incubated for 16 hrs by broth microdilution method
Acinetobacter baumannii [41] = assay: Antibacterial activity against Acinetobacter baumannii 5711 assessed as reduction in microbial growth incubated for 16 hrs by broth microdilution method

Cl.Nc1nc(-c2ccc(NC(=O)Nc3cc(Br)cc(Br)c3)cc2)c[nH]1
MIC (Acinetobacter baumannii [1]): 25 µM
fold change (FC) (Acinetobacter baumannii [2]): 16
MIC (Acinetobacter baumannii [3]): 25 µM
fold change (FC) (Acinetobacter baumannii [4]): 16
fold change (FC) (Acinetobacter baumannii [5]): 16
fold change (FC) (Acinetobacter baumannii [6]): 16
fold change (FC) (Acinetobacter baumannii [7]): 16
fold change (FC) (Acinetobacter baumannii [8]): 16
MIC (Acinetobacter baumannii [9]): 25 µM
fold change (FC) (Acinetobacter baumannii [10]): 16
fold change (FC) (Acinetobacter baumannii [11]): 16
MIC (Acinetobacter baumannii [12]): 25 µM
MIC (Acinetobacter baumannii [13]): 25 µM
fold change (FC) (Acinetobacter baumannii [14]): 16
MIC (Acinetobacter baumannii [15]): 25 µM
MIC (Acinetobacter baumannii [16]): 25 µM
MIC (Acinetobacter baumannii [17]): 25 µM
MIC (Acinetobacter baumannii [18]): 50 µM
MIC (Acinetobacter baumannii [19]): 25 µM
MIC (Acinetobacter baumannii [20]): 25 µM
fold change (FC) (Acinetobacter baumannii [21]): 16
MIC (Acinetobacter baumannii [22]): 25 µM
fold change (FC) (Acinetobacter baumannii [23]): 16
MIC (Acinetobacter baumannii [24]): 25 µM
MIC (Acinetobacter baumannii [25]): 25 µM
fold change (FC) (Acinetobacter baumannii [26]): 16
MIC (Acinetobacter baumannii [27]): 25 µM
fold change (FC) (Acinetobacter baumannii [28]): 16
fold change (FC) (Acinetobacter baumannii [29]): 16
MIC (Acinetobacter baumannii [30]): 25 µM
fold change (FC) (Acinetobacter baumannii [31]): 16
MIC (Acinetobacter baumannii [32]): 25 µM
fold change (FC) (Acinetobacter baumannii [33]): 16
fold change (FC) (Acinetobacter baumannii [34]): 8
MIC (Acinetobacter baumannii [35]): 25 µM
MIC (Acinetobacter baumannii [36]): 25 µM
fold change (FC) (Acinetobacter baumannii [37]): 16
MIC (Acinetobacter baumannii [38]): 25 µM
MIC (Acinetobacter baumannii [39]): 0.25 µg/mL
fold change (FC) (Acinetobacter baumannii [40]): 16
MIC (Acinetobacter baumannii [41]): 25 µM
